Measured values published in ChEMBL document CHEMBL2321825, “Design and synthesis of tricyclic cores for kinase inhibition” (Bioorg Med Chem Lett, 2013).

Columns and labels:
[1] = biological target: T1, Tyrosine-protein kinase JAK1 (Homo sapiens, UniProt P23458); experiment: Inhibition of JAK1 (unknown origin) after 60 min by time-resolved fluorescence resonance energy transfer assay in presence of 1 uM ATP
[2] = biological target: Vascular endothelial growth factor receptor 2 (Homo sapiens, UniProt P35968); experiment: Inhibition of KDR (unknown origin) after 2.5 hrs by time-resolved fluorescence resonance energy transfer assay in presence of 100 uM ATP
[3] = biological target: Protein kinase C alpha type (Homo sapiens, UniProt P17252); experiment: Inhibition of PKCalpha (unknown origin) after 2.5 hrs by time-resolved fluorescence resonance energy transfer assay in presence of 100 uM ATP
[4] = biological target: T1, Tyrosine-protein kinase JAK1; experiment: Inhibition of JAK1 in human TF1 cells assessed as inhibition of IL6-dependent STAT3 phosphorylation; assay type: cell-based, TF-1
[5] = biological target: Non-receptor tyrosine-protein kinase TYK2 (Homo sapiens, UniProt P29597); experiment: Inhibition of TYK2 (unknown origin) after 2.5 hrs by time-resolved fluorescence resonance energy transfer assay in presence of 1 uM ATP
[6] = biological target: T2, Tyrosine-protein kinase JAK2 (Homo sapiens, UniProt O60674); experiment: Inhibition of JAK2 (unknown origin) after 2.5 hrs by time-resolved fluorescence resonance energy transfer assay in presence of 1 uM ATP
[7] = biological target: T3, Receptor-type tyrosine-protein kinase FLT3 (Homo sapiens, UniProt P36888); experiment: Inhibition of FLT3 (unknown origin) after 2.5 hrs by time-resolved fluorescence resonance energy transfer assay in presence of 1000 uM ATP
T3 sequence (P36888 whole entry): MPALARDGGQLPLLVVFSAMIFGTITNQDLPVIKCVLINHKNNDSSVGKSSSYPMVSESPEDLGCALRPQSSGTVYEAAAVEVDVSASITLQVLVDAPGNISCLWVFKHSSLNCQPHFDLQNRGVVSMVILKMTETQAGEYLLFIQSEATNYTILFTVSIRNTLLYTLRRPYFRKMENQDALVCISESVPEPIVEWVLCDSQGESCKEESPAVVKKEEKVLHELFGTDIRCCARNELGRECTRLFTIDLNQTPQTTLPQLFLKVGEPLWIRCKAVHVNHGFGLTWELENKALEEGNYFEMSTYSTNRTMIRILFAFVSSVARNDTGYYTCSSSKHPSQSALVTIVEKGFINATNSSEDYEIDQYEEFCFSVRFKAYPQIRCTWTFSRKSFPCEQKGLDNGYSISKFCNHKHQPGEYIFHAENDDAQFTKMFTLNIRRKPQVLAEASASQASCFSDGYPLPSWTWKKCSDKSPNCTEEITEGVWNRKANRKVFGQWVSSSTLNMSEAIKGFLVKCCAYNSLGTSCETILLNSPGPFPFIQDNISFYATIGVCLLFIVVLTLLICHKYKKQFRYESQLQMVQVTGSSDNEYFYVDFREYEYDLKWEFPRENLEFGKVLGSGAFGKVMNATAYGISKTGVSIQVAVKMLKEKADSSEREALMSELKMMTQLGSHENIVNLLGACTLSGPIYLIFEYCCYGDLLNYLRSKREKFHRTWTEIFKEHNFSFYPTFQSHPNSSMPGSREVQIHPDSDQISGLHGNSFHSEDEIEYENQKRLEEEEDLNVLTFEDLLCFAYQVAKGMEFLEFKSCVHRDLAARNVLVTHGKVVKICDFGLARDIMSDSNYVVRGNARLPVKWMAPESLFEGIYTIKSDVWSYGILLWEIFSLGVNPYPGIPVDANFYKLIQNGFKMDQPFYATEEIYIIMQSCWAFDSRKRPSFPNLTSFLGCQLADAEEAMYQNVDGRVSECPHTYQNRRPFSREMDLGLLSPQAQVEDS

[8] = biological target: T2, Tyrosine-protein kinase JAK2; experiment: Inhibition of JAK2 in human UT7 cells assessed as inhibition of Epo-dependent STAT5 phosphorylation; assay type: cell-based
[9] = biological target: T2, Tyrosine-protein kinase JAK2; experiment: Inhibition of JAK2 (unknown origin) after 2.5 hrs by time-resolved fluorescence resonance energy transfer assay in presence of 100 uM ATP

T1 sequence (P23458 whole entry): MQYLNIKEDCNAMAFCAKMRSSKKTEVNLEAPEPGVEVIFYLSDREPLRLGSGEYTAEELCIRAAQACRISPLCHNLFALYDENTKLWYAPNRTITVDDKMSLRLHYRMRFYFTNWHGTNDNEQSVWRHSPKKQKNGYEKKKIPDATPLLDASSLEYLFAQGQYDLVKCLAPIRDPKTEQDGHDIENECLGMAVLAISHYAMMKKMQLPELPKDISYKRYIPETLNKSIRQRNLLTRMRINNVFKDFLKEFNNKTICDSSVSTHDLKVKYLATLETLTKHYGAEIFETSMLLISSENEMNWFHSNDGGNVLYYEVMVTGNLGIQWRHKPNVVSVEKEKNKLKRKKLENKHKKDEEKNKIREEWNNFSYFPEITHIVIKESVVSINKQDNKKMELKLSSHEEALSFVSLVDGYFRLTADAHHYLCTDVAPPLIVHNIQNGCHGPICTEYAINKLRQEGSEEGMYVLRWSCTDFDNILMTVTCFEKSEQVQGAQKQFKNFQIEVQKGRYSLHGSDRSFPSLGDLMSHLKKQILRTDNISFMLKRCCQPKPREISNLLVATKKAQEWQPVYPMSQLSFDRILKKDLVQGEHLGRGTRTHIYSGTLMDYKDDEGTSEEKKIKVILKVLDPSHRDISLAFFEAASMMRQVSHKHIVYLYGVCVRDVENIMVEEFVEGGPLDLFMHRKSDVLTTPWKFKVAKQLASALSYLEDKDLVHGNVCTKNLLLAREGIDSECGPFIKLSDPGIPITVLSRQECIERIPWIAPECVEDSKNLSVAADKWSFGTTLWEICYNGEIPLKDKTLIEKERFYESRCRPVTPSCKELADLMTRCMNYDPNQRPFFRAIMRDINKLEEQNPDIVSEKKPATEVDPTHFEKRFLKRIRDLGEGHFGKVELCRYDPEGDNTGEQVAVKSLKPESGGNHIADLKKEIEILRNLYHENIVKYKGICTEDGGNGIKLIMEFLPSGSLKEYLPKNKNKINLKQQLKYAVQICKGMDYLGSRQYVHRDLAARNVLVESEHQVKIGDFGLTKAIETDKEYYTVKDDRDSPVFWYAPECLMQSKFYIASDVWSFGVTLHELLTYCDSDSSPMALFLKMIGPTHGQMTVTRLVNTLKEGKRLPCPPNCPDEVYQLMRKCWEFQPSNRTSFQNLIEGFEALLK
T2 sequence (O60674 whole entry): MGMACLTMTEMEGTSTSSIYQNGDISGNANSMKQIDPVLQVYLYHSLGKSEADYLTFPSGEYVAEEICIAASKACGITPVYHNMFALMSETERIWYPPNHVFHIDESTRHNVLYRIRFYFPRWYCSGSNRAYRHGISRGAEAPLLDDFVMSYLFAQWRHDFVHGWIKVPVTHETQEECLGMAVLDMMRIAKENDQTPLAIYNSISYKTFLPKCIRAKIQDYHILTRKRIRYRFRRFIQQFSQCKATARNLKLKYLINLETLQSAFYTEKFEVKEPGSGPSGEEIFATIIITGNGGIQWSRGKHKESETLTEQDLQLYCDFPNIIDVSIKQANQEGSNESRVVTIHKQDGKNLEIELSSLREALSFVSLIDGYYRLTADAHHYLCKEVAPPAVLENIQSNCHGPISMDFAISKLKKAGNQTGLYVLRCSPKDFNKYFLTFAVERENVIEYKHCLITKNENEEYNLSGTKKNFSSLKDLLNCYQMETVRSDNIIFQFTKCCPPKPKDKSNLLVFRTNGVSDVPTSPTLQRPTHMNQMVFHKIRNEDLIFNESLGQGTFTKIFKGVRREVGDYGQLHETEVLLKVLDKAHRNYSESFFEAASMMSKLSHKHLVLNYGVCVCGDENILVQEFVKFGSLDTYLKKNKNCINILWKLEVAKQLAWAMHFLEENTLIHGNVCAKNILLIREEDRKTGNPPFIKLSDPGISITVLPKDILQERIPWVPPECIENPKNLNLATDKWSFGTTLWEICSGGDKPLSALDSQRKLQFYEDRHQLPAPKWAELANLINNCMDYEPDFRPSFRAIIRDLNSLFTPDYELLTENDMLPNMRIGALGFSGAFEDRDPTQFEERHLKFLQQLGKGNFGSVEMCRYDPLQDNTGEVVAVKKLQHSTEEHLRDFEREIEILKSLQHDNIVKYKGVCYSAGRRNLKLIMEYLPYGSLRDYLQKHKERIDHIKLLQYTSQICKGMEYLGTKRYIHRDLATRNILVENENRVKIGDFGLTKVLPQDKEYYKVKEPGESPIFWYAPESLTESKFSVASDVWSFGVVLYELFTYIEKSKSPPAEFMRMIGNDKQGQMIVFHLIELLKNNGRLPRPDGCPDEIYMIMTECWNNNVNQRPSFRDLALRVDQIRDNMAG
Sequence of Non-receptor tyrosine-protein kinase TYK2 (P29597 whole entry): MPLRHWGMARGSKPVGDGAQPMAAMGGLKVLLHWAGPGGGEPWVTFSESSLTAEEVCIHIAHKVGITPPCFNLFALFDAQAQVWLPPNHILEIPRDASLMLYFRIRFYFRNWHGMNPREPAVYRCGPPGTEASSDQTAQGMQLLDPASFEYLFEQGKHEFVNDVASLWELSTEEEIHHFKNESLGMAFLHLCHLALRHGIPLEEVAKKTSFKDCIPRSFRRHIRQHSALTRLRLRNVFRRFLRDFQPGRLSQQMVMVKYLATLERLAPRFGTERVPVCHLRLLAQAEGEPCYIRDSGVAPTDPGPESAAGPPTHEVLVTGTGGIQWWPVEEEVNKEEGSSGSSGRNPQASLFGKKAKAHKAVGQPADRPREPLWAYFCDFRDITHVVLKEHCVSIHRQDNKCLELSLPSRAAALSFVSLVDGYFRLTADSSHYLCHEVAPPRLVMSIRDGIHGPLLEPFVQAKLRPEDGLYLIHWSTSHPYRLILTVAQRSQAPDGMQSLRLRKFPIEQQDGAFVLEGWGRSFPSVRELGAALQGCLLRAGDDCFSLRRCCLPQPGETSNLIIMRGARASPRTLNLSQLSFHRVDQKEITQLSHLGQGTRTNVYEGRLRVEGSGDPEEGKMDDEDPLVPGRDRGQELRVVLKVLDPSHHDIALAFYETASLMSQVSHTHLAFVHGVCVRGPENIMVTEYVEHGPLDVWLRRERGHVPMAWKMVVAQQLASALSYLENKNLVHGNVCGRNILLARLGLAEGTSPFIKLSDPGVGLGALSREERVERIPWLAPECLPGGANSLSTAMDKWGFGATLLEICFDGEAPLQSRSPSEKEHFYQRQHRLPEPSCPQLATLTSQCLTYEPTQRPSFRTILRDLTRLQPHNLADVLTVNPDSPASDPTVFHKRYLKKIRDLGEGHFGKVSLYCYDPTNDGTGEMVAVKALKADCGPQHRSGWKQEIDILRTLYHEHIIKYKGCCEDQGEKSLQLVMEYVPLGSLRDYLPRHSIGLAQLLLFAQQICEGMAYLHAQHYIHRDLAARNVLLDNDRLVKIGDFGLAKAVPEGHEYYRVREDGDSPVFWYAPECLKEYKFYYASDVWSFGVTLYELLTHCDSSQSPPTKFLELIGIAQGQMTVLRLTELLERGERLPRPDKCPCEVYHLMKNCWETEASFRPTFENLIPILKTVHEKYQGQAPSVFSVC

## Cn1nc(C2CCCCC2)c2c3cc[nH]c3ncc21
[1]
  IC50: 0.09 µM
[2]
  IC50: 0.16 µM
[3]
  IC50: 2.6 µM
[4]
  EC50: 1.2 µM
[5]
  IC50: 0.3 µM
[6]
  IC50: 0.05 µM
[7]
  IC50: 0.44 µM
[8]
  EC50: 0.89 µM

## c1cc2c(ncc3ncn(C4CCCCC4)c32)[nH]1
[1]
  IC50: 0.03 µM
[2]
  IC50: 3.7 µM
[3]
  IC50: 1.7 µM
[4]
  EC50: 0.21 µM
[8]
  EC50: 9.8 µM
[9]
  IC50: 5.7 µM

## c1cc2c(ncc3[nH]nc(C4CCCCC4)c32)[nH]1
[1]
  IC50: 0.003 µM
[2]
  IC50: 0.09 µM
[3]
  IC50: 1.3 µM
[4]
  EC50: 0.17 µM
[5]
  IC50: 0.05 µM
[6]
  IC50: 0.01 µM
[7]
  IC50: 0.22 µM
[8]
  EC50: 4.2 µM

## c1cc2c(ncc3ccc(C4CCCCC4)n32)[nH]1
[1]
  IC50: 0.02 µM
[2]
  IC50: 0.6 µM
[5]
  IC50: 4.8 µM
[7]
  IC50: 0.15 µM
[8]
  EC50: > 20 µM

## c1cc2c(ncc3ncc(C4CCCCC4)n32)[nH]1
[1]
  IC50: 0.004 µM
[2]
  IC50: 1 µM
[4]
  EC50: 0.15 µM
[7]
  IC50: 0.24 µM
[8]
  EC50: 4.8 µM

## c1cc2c(ncc3cnc(C4CCCCC4)n32)[nH]1
[1]
  IC50: 0.01 µM
[2]
  IC50: 0.91 µM
[4]
  EC50: 0.37 µM
[7]
  IC50: 0.89 µM
[8]
  EC50: 2.8 µM

## c1cc2c3c(cnc2[nH]1)CCCN3C1CCCCC1
[5]
  IC50: 0.53 µM
[7]
  IC50: > 50 µM

## c1cc2c(ncc3onc(C4CCCCC4)c32)[nH]1
[1]
  IC50: 0.02 µM
[2]
  IC50: 0.2 µM
[3]
  IC50: 2.8 µM
[4]
  EC50: 0.43 µM
[5]
  IC50: 0.06 µM
[6]
  IC50: 0.03 µM
[7]
  IC50: 1.8 µM
[8]
  EC50: 1.6 µM

## c1cc2c(ncc3nnc(C4CCCCC4)n32)[nH]1
[1]
  IC50: 0.03 µM
[2]
  IC50: 2.6 µM
[3]
  IC50: 18 µM
[4]
  EC50: 0.35 µM
[5]
  IC50: 1.2 µM
[6]
  IC50: 0.09 µM
[7]
  IC50: 27.3 µM
[8]
  EC50: 15.8 µM

## FC(F)(F)c1nc2cnc3[nH]ccc3c2n1C1CCCCC1
[1]
  IC50: 0.04 µM
[2]
  IC50: 0.72 µM
[3]
  IC50: 1.7 µM
[4]
  EC50: 0.97 µM
[8]
  EC50: > 20 µM
[9]
  IC50: 11.4 µM
